Reference: PMC11173104, “Synthesis and Antioxidant Activity of N-Benzyl-2-[4-(aryl)-1H-1,2,3-triazol-1-yl]ethan-1-imine Oxides” (International Journal of Molecular Sciences, 2024)

Key:
[1] = Reducing activity (RA): interaction with the stable free radical DPPH; details: 100 µM
Protocol: DPPH is a stable free radical, advantageous for testing compounds in an ethanolic solution, which in its oxidized form presents a maximum absorbance at about 517 nm. The DPPH method is independent of the molecule’s polarity. […] Nitrones 10b, 10c, and 10d highly interact with DPPH (64.5–81%) after 20 min, whereas 10a presents a lower value. In general, the insertion of a substituent increases the reducing activity (RA). […] It seems that an acceptor, such as a fluorine atom, with small molar refractivity (MR) in the para position offers antioxidant ability. […] RA is not influenced by lipophilicity within this nitrones group. The interaction values are increased for all after 60 min (78–81%), showing time dependency. For the sake of comparison, NDGA was used as a standard reference compound.
To an ethanolic solution of DPPH (0.05 mM) in absolute ethanol, 10 µL from a stock solution (10 mM) in the DMSO of the compounds was added. The mixture was shaken vigorously and allowed to stand for 20 min or 60 min; absorbance at 517 nm was determined spectrophotometrically and the percentage of activity was calculated. All tests were undertaken on three or four replicates and the results were averaged (Table 1). NDGA was used as a reference compound.

[2] = ABTS•+ decolorization assay in ethanolic solution; details: 100 µM; 734 nm, 1 min
Protocol: ABTS^•+ was produced according to the described procedure as follows. An ABTS stock solution in water (7 mM) was mixed with potassium persulfate (2.45 mM) and left in a dark at room temperature for 12–16 h before use. A total of 10 µL of the investigated compounds were added to ethanol together with the cationic radical. The results were taken at 734 nm, after 1 min of the mixing procedure. Trolox was used as a positive standard (Table 1).

soybean LOX = target: T1, soybean LOX (Glycine max, UniProt P08170); test: Soybean LOX inhibition in vitro (UV absorbance-based); type: biochemical; details: for IC50: Tris pH 9, sodium linoleate
T1 construct: purchased Aldrich Chemical Co., Milwaukee, WI, USA
T1 sequence (P08170 1-839): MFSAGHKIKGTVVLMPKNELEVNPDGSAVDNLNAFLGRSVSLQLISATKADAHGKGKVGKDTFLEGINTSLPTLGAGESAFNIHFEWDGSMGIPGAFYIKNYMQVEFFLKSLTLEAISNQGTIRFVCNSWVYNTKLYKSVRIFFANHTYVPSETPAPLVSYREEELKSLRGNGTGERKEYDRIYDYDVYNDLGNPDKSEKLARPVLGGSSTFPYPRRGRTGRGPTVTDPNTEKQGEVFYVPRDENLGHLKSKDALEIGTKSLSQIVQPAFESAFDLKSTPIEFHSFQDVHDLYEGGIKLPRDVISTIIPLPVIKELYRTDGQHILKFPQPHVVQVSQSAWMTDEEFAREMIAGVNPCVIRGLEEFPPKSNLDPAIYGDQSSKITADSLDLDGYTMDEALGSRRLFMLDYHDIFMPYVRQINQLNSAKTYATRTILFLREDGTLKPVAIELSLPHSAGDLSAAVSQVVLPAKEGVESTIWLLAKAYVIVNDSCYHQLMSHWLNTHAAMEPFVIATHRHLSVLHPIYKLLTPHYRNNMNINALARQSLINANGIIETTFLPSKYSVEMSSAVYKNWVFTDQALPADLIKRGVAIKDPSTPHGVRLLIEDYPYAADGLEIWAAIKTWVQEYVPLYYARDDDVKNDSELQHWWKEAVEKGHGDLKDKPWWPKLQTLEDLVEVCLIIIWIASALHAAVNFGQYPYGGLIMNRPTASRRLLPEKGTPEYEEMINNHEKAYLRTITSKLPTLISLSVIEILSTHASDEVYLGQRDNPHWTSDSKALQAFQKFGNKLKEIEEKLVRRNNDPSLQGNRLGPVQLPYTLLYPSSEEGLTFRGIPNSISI
Description: The appropriate stimulation of neutrophils cleaves arachidonic acid (AA) from membrane phospholipids, producing leukotrienes through lipoxygenase. Leukotriene B4 (LTB4) is a potent mediator of inflammation, considered to be important in the pathogenesis of neutrophil-mediated inflammatory diseases with a marked relation to the severity of cardiovascular diseases, stroke, and cancer. The enzyme lipoxygenase catalyzes the first two steps in the metabolism of AA, which is cleaved from membrane phospholipids to leukotrienes (LTB4). LTB4 generation is important in the pathogenesis of neutrophil-mediated inflammatory diseases.
The tested compounds dissolved in DMSO were incubated at rt with sodium linoleate (0.1 mL) and 0.2 mL of the enzyme solution (1/9 × 10^−4 w/v in saline) in buffer Tris pH 9.

[3] = Inhibition of AAPH-induced linoleic acid lipid peroxidation (ILP); details: 100 µM, 37 °C, pH 7.4
Description: In our studies, the water-soluble azo AAPH was used as a thermal free radical initiator to induce the oxidative changes of linoleic acid to conjugated diene hydroperoxide. All nitrones except for 10c presented inhibition values (75–87%) lower than the common standard Trolox (93%) (Table 1). […] Lipophilicity seems to play a significant role related to a positive result since the inserted methyl group in compound 10b (75%) increases the lipophilicity of compound 10d driving it to higher inhibition (87%).
Ten microliters of the 16 mM linoleic acid sodium salt solution were added to the UV cuvette containing 0.93 mL of the 0.05 M phosphate buffer, pH 7.4 prethermostated at 37 °C. The oxidation reaction was initiated at 37 °C under air by the addition of 50 μL of the 40 mM AAPH solution. Oxidation was carried out in the presence of 10 μL of the compounds’ stock 10 mM solution in DMSO, in the assay. Lipid oxidation was measured in the presence of the same level of DMSO. The rate of oxidation at 37 °C was recorded as the absorption values at 234 nm and compared to Trolox (Table 1).

[4] = Competition with DMSO for hydroxyl radicals; details: 100 µM; Fe3+/ascorbic acid, 37 °C, 30 min
Protocol: Hydroxyl (^•OH) free radical is counted as the most toxic. As a result, it reacts with important biological molecules such as DNA, lipids, or carbohydrates. We found it interesting to test the scavenging activity of the compounds in competition with DMSO.
The hydroxyl radicals were produced by the Fe^3+/ascorbic acid system and detected by the determination of the formaldehyde produced from the oxidation of DMSO. EDTA (0.1 mM), Fe^3+ (167 μM), DMSO (33 mM) in phosphate buffer (50 mM, pH 7.4), the tested compounds (100 µM) and ascorbic acid (10 mM) were inserted, mixed, and incubated in test tubes at 37 °C for 30 min. The reaction was stopped by CCl3COOH (17% w/v) and the % scavenging activity of the nitrones for hydroxyl radicals was recorded. Trolox was used as a positive control (Table 1).

[5] = set-up: method as in PMID 36670898; details: previous work; cited from earlier work

Row | Structure (SMILES) | IC50 (soybean LOX) [µM] | melting point [°C] | inhibition at 100 µM (soybean LOX; at 100 µM) [%] | RA (%) 20 min [1] | RA (%) 60 min [1] | ABTS•+ (%) [2] [%] | ILP (%) [3] [%] | Scavenging Activity for HO• (%) [4] | hydroxyl radical scavenging (%) [5] [%]
1 | CC(Cc1ccc(O)c(O)c1)C(C)Cc1ccc(O)c(O)c1 (stereo not drawn) [NDGA, nordihydroguaiaretic acid, reference compound] |  |  |  | 88% | 96% |  |  |  | 
2 | Cc1c(C)c2c(c(C)c1O)CCC(C)(C(=O)O)O2 (stereo not drawn) [Trolox, reference compound] |  |  |  |  |  | 91 | 93 | 73% | 88

Further lines, with some results ahead:

Row | IC50 (soybean LOX) [µM] | melting point [°C] | inhibition at 100 µM (soybean LOX; at 100 µM) [%] | Structure (SMILES) | RA (%) 20 min [1] | RA (%) 60 min [1] | ABTS•+ (%) [2] [%] | ILP (%) [3] [%] | Scavenging Activity for HO• (%) [4] | hydroxyl radical scavenging (%) [5] [%]
3 | 85 | 134 to 136 |  | [O-][N+](=CCn1cc(-c2ccccc2)nn1)Cc1ccccc1 [Nitrone 10a, N-Benzyl-2-(4-phenyl-1H-1,2,3-triazol-1-yl)ethan-1-imine Oxide] | 57% | 78% | 8 | 81 | no | 
4 | 62.5 | 129 to 131 |  | [O-][N+](=CCn1cc(-c2ccc(F)cc2)nn1)Cc1ccccc1 [Nitrone 10b, N-Benzyl-2-[4-(4-fluorophenyl)-1H-1,2,3-triazol-1-yl]ethan-1-imine Oxide] | 81/81% | 81/81% | 46 | 75 | no | 
5 | 10 | 112 to 113 |  | [O-][N+](=CCn1cc(-c2ccc(F)cc2F)nn1)Cc1ccccc1 [Nitrone 10c, N-Benzyl-2-[4-(2,4-difluorophenyl)-1H-1,2,3-triazol-1-yl]ethan-1-imine Oxide] | 79/79% | 79/79% | 23 |  | no | 
6 |  | 131 to 133 | 45 | Cc1cc(-c2cn(CC=[N+]([O-])Cc3ccccc3)nn2)ccc1F [Nitrone 10d, N-Benzyl-2-[4-(4-fluoro-3-methylphenyl)-1H-1,2,3-triazol-1-yl]ethan-1-imine Oxide] | 64.4% | 79.5% | 23 | 87 | no | 
